Results reported in patent US20250049032A1, “ETHYLENE SIGNALING ACTIVATOR MODULATES ROOT SYSTEM ARCHITECTURE” (Salk Institute for Biological Studies, priority 2021, published 2025).

What was measured:
[1] = tested on: root cells of etiolated seedlings; test: Root cell size by confocal microscopy (PI staining); format: in vivo, Arabidopsis thaliana; settings: 4-day-old etiolated seedlings, 2.5 μM MBZ or 10 μM ACC
Source text: LaserMicroscopy. A Zeiss 710 confocal microscope with 20×, 40×, and 63× objectives were used to detect GFP and propidium iodide (PI) fluorescence. A Keyence BZ-X810 microscope with a 20× objective was used to detect bright field images and GFP fluorescence in FIG. 3B, FIG. 8B right panel, FIG. 9C, FIG. 9F.

[2] = tested on: Arabidopsis thaliana roots
ARR5 = test: Expression of immediate-early cytokinin target gene ARR5; format: in vivo, Arabidopsis thaliana; settings: 10 μM MBZ, 3 h, 6 h or 12 hours
[3] = tested on: IAA1, IAA29, GH3.2, GH3.3, and MAKR4; test: Expression of marker genes of auxin signaling; format: in vivo, Arabidopsis thaliana; settings: 10 μM MBZ, 2 h
hsMAPK14 = hsMAPK14 (Homo sapiens, UniProt Q16539); settings: mammalian systems, Ariey-Bonnet et al., 2020; cited from earlier work
Sequence of hsMAPK14 (Q16539 whole entry): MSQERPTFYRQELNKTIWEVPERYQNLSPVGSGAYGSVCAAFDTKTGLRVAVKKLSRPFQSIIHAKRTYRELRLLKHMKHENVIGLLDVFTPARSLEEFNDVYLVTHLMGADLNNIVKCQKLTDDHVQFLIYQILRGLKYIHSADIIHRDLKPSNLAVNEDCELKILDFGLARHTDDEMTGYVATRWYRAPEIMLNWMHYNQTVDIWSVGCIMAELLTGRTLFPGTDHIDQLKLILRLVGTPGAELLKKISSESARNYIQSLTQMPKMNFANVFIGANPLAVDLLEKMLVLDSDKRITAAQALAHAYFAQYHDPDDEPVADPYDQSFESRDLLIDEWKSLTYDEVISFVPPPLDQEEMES

[4] = tested on: etiolated Col-0 seedlings; test: Measurement of ethylene production by GC-MS; format: in vivo, Arabidopsis thaliana; settings: 3-days-old etiolated Col-0 seedlings, 10 μM
Protocol: Measurement of ethylene production. […] These vials were incubated at 22° C. for 3 days under dark environment. 500-1000 μL sample of the headspace gas was sampled with an autosampler (TriPlus RSH, Thermo Scientific) and injected into a gas chromatograph (Trace 1310 GC, Thermo Scientific) that was equipped with a HP-PLOTQ column ([…], 320 μm, 20 μm) and a mass spectrometer (TSQ8000 Evo MS, Thermo Scientific), scanning from 25-27.5 m/z. Separations were carried out at 35° C. using He as the carrier gas. The area of the ethylene peak (RT: 4 min) was integrated using Thermo Xcalibur Qual Browser. A calibration curve was generated by varying the injection volume (100 μL, 250 μL, 500 μL, and 1000 μL) of a 10 ppm ethylene standard (in nitrogen), and sample results are expressed as concentrations calculated from linear regression of calibration samples.

MAPK4 = biological target: T1, MAPK4 (Arabidopsis thaliana, UniProt Q39024); test: In vitro kinase assay with non-radioactive ATP-γ-S; format: biochemical; settings: 0, 10, 100 μM MBZ
T1 construct: 6xHis (N); made in house; host or cells: E. coli Rosetta 2 (DE3)pLysS
T1 sequence (Q39024 1-376): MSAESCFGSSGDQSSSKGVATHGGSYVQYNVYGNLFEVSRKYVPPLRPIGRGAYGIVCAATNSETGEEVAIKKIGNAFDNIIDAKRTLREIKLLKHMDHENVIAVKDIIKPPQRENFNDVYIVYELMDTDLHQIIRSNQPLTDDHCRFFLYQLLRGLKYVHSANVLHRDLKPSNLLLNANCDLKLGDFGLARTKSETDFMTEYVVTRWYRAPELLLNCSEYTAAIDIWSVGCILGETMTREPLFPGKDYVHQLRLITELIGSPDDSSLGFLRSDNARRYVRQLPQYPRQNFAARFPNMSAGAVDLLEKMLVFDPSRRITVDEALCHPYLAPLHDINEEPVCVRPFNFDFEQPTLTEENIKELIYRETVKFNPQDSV
Protocol: Protein purification. The CTR1 Kinase domain (540 aa-821 aa) (CTR1-KD) and MAPK4 were cloned into a modified pET28a with 6× His tag at their N-terminal. Proteins were expressed in Rosetta™ 2 (DE3)pLysS Competent Cells. Bacteria was cultured in 30 mL LB media containing 50 μg/mL kanamycin overnight at 37° C., 200 rpm. The culture was transferred into 1 L LB media with kanamycin. After the culture reached to 0.7 to 0.9 at OD 600 nm, 0.4 mM isopropylthiop-D-galactoside (IPTG) was added, and the culture was grown for 22 h at 20° C., 200 rpm. Cells were harvested by centrifugation at 4° C. for 10 mins at 3,000×g. The pellet was washed with 0.9% NaCl and resuspended in 40 mL lysis buffer (50 mM pH 7.5 Tris-HCl, 1 mM EDTA, 100 mM NaCl, 20% glycerol, EDTA-free protease inhibitor cocktail, 10 mM imidazole). […] Protein concentration was measured by their absorbance at 280 nm.
In vitro kinase assay with non-radioactive ATP-7-S. The in vitro kinase assay followed the previous published method ([…]). […] The phosphorylation status of MBP, CTR1-KD and MPK4 were analyzed by western blot using Recombinant Anti-Thiophosphate ester antibody (Abcam, Cat. Ab92570, 1:5000) followed by Goat Anti-Rabbit IgG (H+L)-HRP Conjugate antibody (Bio-Rad, Cat. No. 170-6515, 1:5000). The MBP, CTR1-KD and MPK4 proteins loading amounts were measured by Coomassie Blue R250 staining.

[5] = tested on: Ethylene Response Factor1 (ERF1); test: Expression of ethylene response marker gene ERF1; format: in vivo, Arabidopsis thaliana; settings: root tissue, 2 hours, 10 μM MBZ or ACC (50 μM per legend)
[6] = 1 μM MBZ, one week after germination
[7] = 8-day-old seedlings, 1 μM MBZ or 10 nM IAA plates

For COC(=O)Nc1nc2ccc(C(=O)c3ccccc3)cc2[nH]1 [MBZ, Mebendazole], the mature cell size [1] was “reduced”, the “decreased root length (in average reduced by)” value [2, 6] was 37% and the “root hair initiation and elongation” value [2, 6] was “increased”. The “root length of ein2-5 and ein3eil1 mutant plants” value ([2]; 1.2 μM MBZ) was “clearly not affected”, the “root phenotype of Col-0” value ([2]; 1.2 μM MBZ) was “short roots and increased root hair development” and the “response of etr1-1 and etr1-3 ethylene receptor mutants (root length, GSA)” value ([2]; 1.2 μM MBZ plates) was “strongly responded”. The “lateral root angles of ctr1-1, ein2-5, and ein3eil1 plants” value ([2]; 2 to 3-weeks-old plants, 1.3 μM MBZ) was “insensitive”, the root elongation [2, 7] was “inhibited” and the root hair growth [2, 7] was “enhanced”. The lateral root angle ([2]; MBZ treatment) was “distinctly increased”, the “plant growth and development” value ([2]; in vivo) was “strongly inhibited plant growth and development” and the “lateral root gravitropic setpoint angle (GSA)” value ([2]; two-week-old seedlings grown on 1 μM MBZ plates) was “approx. 70 °”. For the same molecule, the ARR5 expression (ARR5) was “did not respond”, the “expression of marker genes of auxin signaling” value [3] was “did not show any significant change” and the “activity on hsMAPK14” value (hsMAPK14) was “inhibitor”. For the same molecule, the ethylene production [4] was “not detected”, the “effect on MAPK4 kinase activity compared to CTR1” value (MAPK4) was “much less pronounced” and the “kinase activity of MPK4” value (MAPK4; concentration dependent) was “inhibited”. For the same molecule, the “transcript level of ERF” value [5] was “strongly induced”.
